Results on 1 substance are retold here after PMC9589286, “Ruthenium polypyridine complexes with triphenylamine groups as antibacterial agents against Staphylococcus aureus with membrane-disruptive mechanism” (Frontiers in Chemistry, 2022).

The test system of data set [1] is Staphylococcus aureus. The data set is described as follows: In vivo antibacterial activity, mouse skin infection model. On the set-up: species or system mice. The conditions noted are these: cream with 50 μg ml^−1, 4 times a day, after 4 days. Here is the method: S. aureus was cultured in TSB medium to exponential phase. Bacterial precipitates were collected and washed with PBS three times by centrifugation, which was diluted to OD600 = 1 (1.02 × 10^8 CFU/ml) with sterile normal saline. The day before the infection, the hair on the back of the mice was shaved off. Then depilatory cream (Veet®) was used to remove the remaining hair. Subsequently, 100 μL S. aureus was injected in subcutaneous and the abscess formed after 12 h later. All mice infected with S. aureus were divided into two groups (n = 5 in each group), including control group and treatment group, Ru-3 (0.05 mg ml^−1), which was fully mixed in sterile cream. Afterwards, mouse abscesses were treated with creams containing Ru-3 4 times a day. After 10 days, the experiment was ended. The study was conducted in strict accordance with NIH guidelines for the care and use of laboratory animals (NIH Publication No. 85–23, revised in 1985), and was reviewed and approved by the institutional animal care and use Committee of Guangxi Normal University (Guilin, China).

The test system of data set [2] is Staphylococcus aureus biofilm. The experiment in a line: Biofilm formation, crystal violet staining. It counts as cell-based. Here is the method: 24 well plate was used for biofilm determination. The overnight cultured Staphylococcus aureus strain was diluted 1000 times with fresh TSB medium. Then 2 ml of that diluted bacterial solution was mixed with 500 µL Ru-3 of different concentrations in a 24 well plate. After incubation at 37°C for 48 h, the bacterial suspension was removed and the plate was washed three times with PBS. The adherent bacteria were dried overnight at 37°C and then dyed through 0.1% crystal violet solution. After 2 min, taking out the crystal violet solution and wash the plate with PBS again. And then, adding 1 ml acetic acid and 1 ml water, the formation of biofilm can be determined by monitoring the absorbance at 595 nm.

In data set [3] the test system is Staphylococcus aureus. The data set is described as follows: Membrane permeability, ONPG hydrolysis. The following applies: Ru-3 2 or 4 μg/ml vs vancomycin 2 μg/ml. The data set is classed as cell-based. Here is the method:
O-nitrobenzene-β-D-galactopyranoside (ONPG) was the substrate of intracellular ß-galactosidase, that was used to determine the permeability of Staphylococcus aureus cell membrane. Staphylococcus aureus was cultured to logarithmic phase, then washed and cultured in M9 lactose medium, in which lactose was used as the only carbon source of a single colony and stayed overnight at 37°C. After washing three times with PBS, the culture was diluted to OD600 = 0.3 (PBS). […] The hydrolysis of ONPG to o-nitrophenol over time was monitored by UV every 15 min at 415 nm. A similar procedure was used for untreated cells as control ([Xuan et al., 2021]).

The test system of data set [4] is Staphylococcus aureus hemolysin. The experiment in a line: Toxin (hemolysin) secretion, rabbit blood cell hemolysis by culture supernatant. The data set is classed as cell-based. Here is the method: Firstly, S. aureus was cultured overnight and diluted 1000 times with fresh TSB, then a mixture of Ru-3 of 1 μg ml^−1 or 2 μg ml^−1 and Staphylococcus aureus solution was cultured in a shaking Table at 37°C for 18 h. After culturing, centrifuging (5000 rpm, 2 min) Staphylococcus aureus solution. And rabbit blood cells were prepared with PBS buffer (washing rabbit blood three times). Blood cells were collected by centrifugation (2000 rpm, 2 min). Secondly, a mixture containing 1 ml PBS buffer, 150 μL supernatant and 25 μL blood cells was cultured at 37°C for 30 min. Then cultured supernatant was obtained by centrifugation (2000 rpm, room temperature, 2 min). Finally, the optical density of the supernatant was measured at 540 nm.

The test system of the next data set is BALB/c mice. The data set is described as follows: Acute skin irritation test, H&E. The conditions noted are these: 0.05 and 0.1 mg ml^−1, once a day for 3 days, topical. The data set is classed as in vivo. As for the experimental part:
Female BALB/c mice were randomly divided into three groups, control group, Ru-3 (0.05 mg ml^−1) group and Ru-3 (0.1 mg ml^−1). The day before the experiment, the hair on the back of female mice was removed. The compound and distilled water control were gently attached to the shaving site (about 2 cm^2) once a day for 3 days. On the fourth day, the mice were killed by cervical dislocation. The skin tissue at the site of infections were taken out and fixed in 4% paraformaldehyde at 4°C for 1 day, then embedded in paraffin. Serial sections were prepared for H&E analysis.

A short description of data set [5]: Partition coefficient, shake flask 1-octanol/PBS. The data set is classed as physicochemical. As for the experimental part: The partition coefficients of all complexes were determined by standard shake flask method in 1-octanol and buffer liquid system ([Yang et al., 2021]). In brief, the octanol/water partition coefficient is obtained by the incubation of 2 ml of 25 μg ml^−1 ruthenium complex 1-octanol and 2 ml PBS samples. After shaking the solution for 6 h, the samples were stood for 2 h. The absorbance of octanol complex at 282 nm before and after oscillation was measured. The absorbance of 1-octanol before oscillation minus the absorbance of 1-octanol after oscillation is the absorbance of the complex in water. Each experiment was repeated three times. The partition coefficient is reported as the number of octanol divided by the number of water.

Data set [6] relates to Staphylococcus aureus. The experiment in a line: DiSC3(5) and DAPI/PI fluorescence staining. It counts as cell-based. The conditions noted are these: 4 μg ml^−1, 2 h. As for the experimental part: Firstly, S. aureus was cultured in TSB medium to exponential phase. Exponential growth bacteria were collected by centrifugation at 5000 rpm for 2 min, then washed with PBS and diluted to OD600 value of 0.3. Secondly, Ru-3 (4 μg ml^−1) was added to the bacterial suspension solution and incubated at 37°C for 2 h, then the supernatant was removed by centrifuging. Thirdly, the bacterial was washed with PBS for three times and suspendedin 500 μL PBS. Subsequently, adding 20 μL DiSC3(5) (30 μM), incubating for 1 h under dark conditions. For DAPI and PI, adding 20 μL DAPI (10 μg ml^−1), incubating for 15 min under dark conditions. Next, adding 20 μL PI (15 μg ml^−1) in the same tube, and incubating for 15 min under dark conditions. After that, centrifuge, removing the supernatant. Eventually, suspending with 500 uL PBS and 20 μL samples were transfered on glass slides and observed under fluorescent cell imager.

The test system of data set [7] is Staphylococcus aureus. The experiment in a line: MIC by microdilution in TSB broth. The data set is classed as cell-based. The conditions noted are these: S. aureus, 37°C, 20 h. As for the experimental part:
Antibacterial activity was evaluated by measuring MIC (minimum inhibitory concentration) and MBC (minimum bactericidal concentration) values. The MIC value was measured by the microdilution method using TSB broth with 96 well plates ([Carlsen et al., 1981]) and the MBC value was determined by LB plates. In brief, the overnight cultured bacteria were 1: 1000 diluted with fresh medium to get a bacterial suspension. After incubation at 37°C for 20 h, the growth of bacteria is monitored by observing the turbidity of the culture. The bacterial solution was diluted as above method and the complexes were incubated with bacterial solution for 2 h. Then 100 μL bacterial solution was taken for plate coating. The Staphylococcus aureus growth inhibition trend in the presence of complexes was obtained. The MBC values of complexes were determined by LB plates after culturing in the same method for 24 h. All experiments were controlled with sterile water and repeated in parallel at least three times.
(In broth dilution the organism is exposed to a series of concentrations in liquid medium.)

[Ru(dmb)2PMA] (PF6)2 [Ru-3]: the “degree of wound healing” value in the data set on Staphylococcus aureus [1] is “increased significantly”. Moreover, the “biofilm formation reduced by” value in data set [2] (1 μg ml^−1, 48 h) came to 27%; in data set [2] (2 μg ml^−1, 48 h), 41%. The “Nomalized Biofilm formation” value in data set [2] (1 μg/mL) came out at 73%; in data set [2] (2 μg/mL), 59%. Moreover, in the data set with Staphylococcus aureus [3], the “plasma membrane permeability (ONPG)” value was “better membrane permeability”. The figures for the “Toxin reduced by” value in data set [4] (1 μg ml^−1) and in data set [4] (2 μg ml^−1) were 38% and 63%, respectively. Further, in the data set with BALB/c mice, the “skin irritation, H&E pathological changes” value was “no obvious pathological abnormalities”. In data set [5], the LgP is recorded as 1.79. Further, the logD o/w entry in data set [5] was “ca. 1.7885”. In the data set with Staphylococcus aureus [6], the DAPI/PI fluorescence result is “blue and red fluorescence”. The “membrane depolarization, DiSC3(5) fluorescence” value with Staphylococcus aureus [6] is given as “strong green fluorescence”. Moreover, in the data set with Staphylococcus aureus [7], the MIC is recorded as 4 µg/mL.

The MIC is the lowest concentration found to suppress growth. A high value points to a less susceptible organism.
